Assay results reported in patent US5063045A, “Method for evaluating antiallergic substances” (Nippon Zoki Pharmaceutical Co., Ltd., priority 1989, dated 1991).
Counter-ions that a name gives are not always drawn.

Experiments:
[1] = tested on: passively sensitized SART stressed guinea pigs; test: Nasal secretion (dyed thread length) after nasal provocation with ovalbumin in passively sensitized SART stressed guinea pigs; type: in vivo, guinea pig (male Hartley strain); conditions: for Inhibition: inhibition of nasal secretion vs control
Method: Male Hartley strain guinea pigs weighing 300 to 500 g were used. The threshold of nasal mucosal sensitivity to methacholine of these animals was previously measured with a nasal thread dyed with fluorescein, and those guinea pigs having normal sensitivity were divided into groups of 7 or 8 animals making the average of the threshold of sensitivity substantially equal in each group. To load SART stress, the guinea pigs were kept in a thermostatic box at the environmental temperature of 0° C. and 24° C. alternately for one hour period from 10:00 a.m. to 5:00 p.m., and at 0° C. from 5:00 p.m. to 10:00 a.m. the next day. This stress loading was continued for 5 days prior to sensitization. The stress-loaded guinea pigs from the previous example were sensitized intraperitoneally using 20 μg of ovalbumin and 10 mg of aluminum hydroxide (adjuvant) in 1 ml of saline 7 times every 2 weeks. After 2 weeks of the sensitization, airway sensitization was performed by ultranebulization with 3 ml of 0.1% ovalbumin in saline for 5 consecutive days. One week later, nasal provocation was performed by application of 50 μl of 1% ovalbumin in saline on both anterior nares, and antiserum was collecting from guinea pigs showing typical nasal symptoms of nasal allergy such as sneeze, nasal secretion and asthma. This anti-ovalbumin serum was preserved at -80° C. The provocation was made by application of 50 μl of 1% ovalbumin on the left anterior naris 2 days after passive sensitization by intraperitoneally injecting 2 ml of diluted anti-ovalbumin serum from the previous example (diluted ratio;×1/8). […] Defatted cotton threads (No. 40/2) were dyed with 10% fluorescein-Na in physiological saline at one end, and were cut to a total length of 100 mm with the colored end 10 mm in length. About 15 mm of the colored end of the thread was inserted into the left anterior naris of the guinea pigs for 60 sec. The length of thread dyed with fluorescein due to nasal secretion was taken as a measure of the amount of nasal secretion. (A few threads can be used together when the amount of nasal secretion is large). […] The amount of nasal secretion was measured by the length of the colored portion of the thread dyed with fluorescein.

[2] = tested on: actively sensitized guinea pigs; test: Nasal secretion on repeated nasal provocations with ovalbumin in actively sensitized guinea pigs; type: in vivo, guinea pig; conditions: 1.0 mg/kg/day p.o.
Method: Active sensitization was carried out in a manner similar to the preparation of anti-ovalbumin serum mentioned above. Namely, 1 μg ovalbumin and 5 mg of aluminum hydroxide (adjuvant) in 1 ml of saline were injected into guinea pigs intraperitoneally 6 times every 2 weeks.
Two weeks after the active sensitization with ovalbumin, 50 μl of 1% ovalbumin in saline was administered into both anterior nares to start nasal provocation with allergen. Then the nasal provocations with ovalbumin were repeated 1, 4, 7, 10 and 13 days after the first provocation.
Defatted cotton threads (No. 40/2) were dyed with 10% fluorescein-Na in physiological saline at one end, and were cut to a total length of 100 mm with the colored end 10 mm in length. About 15 mm of the colored end of the thread was inserted into the left anterior naris of the guinea pigs for 60 sec. The length of thread dyed with fluorescein due to nasal secretion was taken as a measure of the amount of nasal secretion. (A few threads can be used together when the amount of nasal secretion is large).
Enhanced nasal mucosal sensitivity was measured by using animals obtained by repeated nasal provocations with ovalbumin in actively sensitized guinea pigs with the allergen according to the method of Examples 4, 5 and 6. The inhibitory action for nasal secretion of Ketotifen fumarate (1.0 mg/kg/day, p.o.) was also measured using this assay system.

[3] = Ketotifen fumarate 0.3 mg/kg/day p.o.
[4] = Ketotifen fumarate 1.0 mg/kg/day p.o.
[5] = Ketotifen fumarate 3.0 mg/kg/day p.o.

## CN1CCC(=C2c3ccccc3CC(=O)c3sccc32)CC1 [Ketotifen, Ketotifen fumarate]
[1]; [3]
  Nasal secretion: 33.5 mm
  Inhibition: 25.5%
[1]; [4]
  Nasal secretion: 23.9 mm
  Inhibition: 46.9%
[1]; [5]
  Nasal secretion: 16.1 mm
  Inhibition: 64.2%
[2]; 1st provocation with allergen
  Nasal secretion: 68.9 mm
[2]; 2nd provocation with allergen (1 day)
  Nasal secretion: 54.1 mm
[2]; 3rd provocation with allergen (4 days)
  Nasal secretion: 73.0 mm
[2]; 4th provocation with allergen (7 days)
  Nasal secretion: 68.5 mm
[2]; 5th provocation with allergen (10 days)
  Nasal secretion: 77.3 mm
[2]; 6th provocation with allergen (13 days)
  Nasal secretion: 96.9 mm
